Assay results as given in publication PMC7429481 (British Journal of Pharmacology, 2020).

Columns and labels:
[1] = molecular target: T1, human SNAP‐GLP‐1 receptor (Homo sapiens, UniProt P43220); assay: GLP‐1 receptor recycling by TR‐FRET in CHO‐K1‐SNAP‐GLP‐1 receptor cells; assay type: cell-based; conditions: H89 10 μM, exendin‐4 100 nM 30 min, n = 5
[2] = molecular target: T1, human SNAP‐GLP‐1 receptor; assay: cAMP by HTRF in HEK293‐SNAP‐GLP‐1 receptor cells; assay type: cell-based; conditions: 30 min incubation, n = 5
Method: Cells were stimulated with agonist for the indicated period in their respective growth mediums without FBS. […] At the end of the incubation period, cells were lysed and cAMP was determined by HTRF (cAMP Dynamic 2 kit, Cisbio) using a Spectramax i3x plate reader (Molecular Devices).

T1 sequence (P43220 24-463): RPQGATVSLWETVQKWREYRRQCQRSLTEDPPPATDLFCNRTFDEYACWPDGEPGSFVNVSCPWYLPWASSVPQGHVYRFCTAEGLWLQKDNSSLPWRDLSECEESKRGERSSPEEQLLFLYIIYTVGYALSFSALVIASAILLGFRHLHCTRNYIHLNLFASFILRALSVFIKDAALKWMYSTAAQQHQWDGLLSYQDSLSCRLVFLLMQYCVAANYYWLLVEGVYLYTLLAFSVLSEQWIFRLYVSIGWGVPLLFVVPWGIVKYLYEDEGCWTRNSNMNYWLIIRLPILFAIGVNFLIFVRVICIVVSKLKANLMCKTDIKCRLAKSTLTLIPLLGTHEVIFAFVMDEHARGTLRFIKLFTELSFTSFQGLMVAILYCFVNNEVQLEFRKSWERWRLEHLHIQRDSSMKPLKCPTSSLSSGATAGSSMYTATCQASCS

Row | Compound | effect on GLP‐1 receptor recycling after exendin‐4 pretreatment [1] | cAMP signalling potency of FITC conjugate [2]
1 | O=S(=O)(NCCNC/C=C/c1ccc(Br)cc1)c1cccc2cnccc12 [H89] | did not affect | –
2 | lixisenatide‐FITC: FITC‐conjugate of lixisenatide | – | reduced cAMP signalling potency
